Columns and labels:
Brugia malayi [1] = test: In vitro anti-filarial activity of the compound against male adult worms of Brugia. malayi at 100 uM concentration, using MTT reduction potential assay.; assay type: functional
Brugia malayi [2] = test: In vitro anti-filarial activity against female adult worms of Brugia. malayi at 100 uM concentration, using MTT reduction potential assay.; assay type: functional
Brugia malayi [3] = test: In vitro anti-filarial activity against female adult worms of Brugia. malayi at 100 uM concentration, using motility assay; D = Dead worms; assay type: functional, organism-based
Brugia malayi [4] = test: In vitro anti-filarial activity against male adult worms of Brugia. malayi at 100 uM concentration, using motility assay; D = Dead worms; assay type: functional, organism-based
Brugia malayi [5] = test: In vitro anti-filarial activity against male adult worms of Brugia. malayi at 100 uM concentration, using motility assay.; assay type: functional
Brugia malayi [6] = test: In vitro anti-filarial activity against female adult worms of Brugia. malayi at 100 uM concentration, using motility assay.; assay type: functional
Brugia malayi [7] = test: In vitro anti-filarial activity against male adult worms of Brugia. malayi at 100 uM concentration, using MTT reduction potential assay.; assay type: functional
Brugia malayi [8] = test: In vitro anti-filarial activity against male adult worms of Brugia. malayi at 100 uM concentration, using motility assay D = Dead worms; assay type: functional, organism-based
Brugia malayi [9] = test: In vitro anti-filarial activity against female adult worms of Brugia. malayi at 100 uM concentration, using motility assay; assay type: functional

Structure (SMILES) | inhibition at 100 µM (Brugia malayi [1]) | inhibition at 100 µM (Brugia malayi [2]) | Mortality (Brugia malayi [3]) | Mortality (Brugia malayi [4]) | Mortality (Brugia malayi [5]) | Mortality (Brugia malayi [6]) | inhibition at 100 µM (Brugia malayi [7]) | Mortality (Brugia malayi [8]) | Mortality (Brugia malayi [9])
CCCCCCNC(=O)c1cnc2ccc(C(=O)O)cc2c1O | 58.8% | 64.8% | Dead worms | Dead worms |  |  |  |  | 
CCOC(=O)c1cnc2ccc(C(=O)O)cc2c1O |  | 0% |  |  | 3 | 3 | 0% |  | 
CCCCCCCCNC(=O)c1cnc2ccc(C(=O)O)cc2c1O |  | 84.8% | Dead worms |  |  |  | 62.8% | Dead worms | 
O=C(O)c1ccc2ncc(C(=O)NC3CCCCC3)c(O)c2c1 |  | 0% |  |  | 3 |  | 0% |  | 3
O=C(O)c1ccc2ncc(C(=O)NC3CCCCCC3)c(O)c2c1 |  | 0% |  |  | 3 | 3 | 0% |  | 

Source: ChEMBL document CHEMBL1131778, “Solid phase synthesis of quinolones” (1999)
